Patent US9556203B2, “Conformationally restricted P13K and mTOR inhibitors” (UNIVERSITAET BASEL, priority 2013, dated 2017)

Tests used:
PI3K alpha (p110α) = molecular target: T1, PI3K alpha (p110α) (Homo sapiens, UniProt P42336); test: In vitro PI3K alpha binding assay (time-resolved FRET, Tracer 314); conditions: N-terminally His-tagged PI3K alpha, 20 nM Tracer 314, 1 h at rt
T1 construct: purchased Life Technologies PV4789
Procedure: N-terminally His-tagged PI3K alpha (Cat. No. PV4789; 0.49 mg/ml), Alexa Fluor® 647 labeled kinase Tracer 314 (Cat. No. PV6087), Biotin anti-His Tag antibody (Cat. No PV6089) and LanthaScreen® Eu-Streptavidin (Cat. No. PV5899) were purchased from Life Technologies. The 1× Kinase Buffer A consists of 50 mM HEPES pH 7.5, 10 mM MgCl2, 1 mM EGTA, and 0.01% (v/v) Brij-35 (Sigma Cat. No. B4184-100ML).
A 4-fold serial dilution of each compound to be tested was prepared in DMSO (master dilution) in a 96-well polystyrene plate (Falcon Cat. No. 353072, flat bottom) with the highest concentration at 1000 μM and the lowest at 0.004 μM. The master dilution series were diluted further 33.3-fold into Kinase Buffer A by transferring 5 μl of each concentration of diluted compound to 162 μl Kinase Buffer A in a new 96-well plate resulting to a 3-fold serially compound dilution. Based on a Tracer 314 titration experiment a working concentration of 20 nM was chosen. Therefore a 60 nM Tracer 314 solution in Kinase Buffer A was prepared resulting in a 3-fold concentrated solution. A 3-fold concentrated kinase/antibody solution at 15 nM kinase, 6 nM antibody and 6 nM Eu-Streptavidin was prepared in Kinase Buffer A. Five μl of each 3× serially diluted compound were dispensed in a 384-well plate in duplicate. Then to each well 5 μl of 3× kinase/antibody mixture was added followed by the addition of 5 μl 3× Tracer 314 solution. After 1 h incubation at rt, time-resolved FRET was measured with a Synergy 4 multi-mode microplate reader (Biotek Instruments) using the following settings: 100 μs delay before data collection, 200 μs time for data collection, 10 measurements per data point. Emission filter: 665 nm/8 nm with sensitivity set to 163 and 620 nm/10 nm with sensitivity set to 135; Excitation filter: 340 nm/30 nm; Dichroic mirror 400 nm.
For data analysis, emission ratio was calculated by dividing the signal emitted at 665 nm from the acceptor (Alexa Fluor® 647 labeled Tracer 314) by the signal emitted at 620 nm from the donor (Eu-labeled antibody). IC50 values of each compound were determined by plotting the emission ratio versus the compound concentrations (in logarithmic scale) and then by fitting a sigmoidal dose-response curve with variable slope to the data using GraphPad™ Prism.

pS6 S235/236 = test: In-cell Western blot, pS6 S235/236; assay type: cell-based; conditions: Homo sapiens; A2058 cells, treated 1 h, normalized to α-Tubulin
Procedure: (§1) A2058 cells were plated at 20,000 cells/well in a 96-well plate (Perkin Elmer, Cat. No. 6005558) and 24 h later treated with different compounds for 1 h. […] Cells were fixed with 4% paraformaldehyde for 30 min at RT, washed 2 times with 1% BSA in PBS, permeabilized with 0.1% Triton X-100 in PBS/1% BSA for 30 min at rt and blocked with 5% goat serum in PBS/1% BSA/0.1% Triton X-100 for 30 min at rt. Cells were stained with primary antibody either with rabbit anti-pPKB S473 (1:500; Cell Signalling Technology, Cat. No. 4058) combined with mouse anti-α-Tubulin (1:2000; used for normalization; Sigma, Cat. No. T9026) or with rabbit anti-pS6 S235/S236 (1:500; Cell Signalling Technology, Cat. No. 4856) combined with mouse anti-α-Tubulin (1:2000; used for normalization) over night at 4° C. After 3 times 5 min wash with PBS/1% BSA/0.1% Triton cells were treated with the secondary antibodies goat-anti-mouse IRDye680 (LICOR, Cat. No. 926-68070) and goat-anti-rabbit IRDye800 (LICOR, 926-32211) (each diluted 1:500 in PBS/1% BSA/0.1% Triton) for 1 h while shaking in the dark. Cells were washed 3 times 5 min with PBS/1% BSA/0.1% Triton and plate scanned with the Odyssey Infrared Scanning system using both 700 and 800 nm channels. […] To correct for background staining in the data analysis wells were treated only with secondary antibodies.
(§2) For data analysis the mean background signal from channel 700 nm and 800 nm were subtracted from each signal in channel 700 nm and 800 nm, respectively. The signals in each channel were normalized to the 0% inhibition and then signal ratio 800 nm over 700 nm was performed to obtain the values for either pPBK S473 or pS6 S235/S236 normalized to α-Tubulin.
(§3) IC50 values of each compound were determined by plotting the normalized pPBK S473 and pS6 S235/S236 signals, respectively, versus the compound concentrations (in logarithmic scale) and then by fitting a sigmoidal dose-response curve with variable slope to the data using GraphPad™ Prism.

pPKB S473 = test: In-cell Western blot, pPKB S473; assay type: cell-based; conditions: Homo sapiens; A2058 cells, treated 1 h, normalized to α-Tubulin
Procedure: as §1, §2, §3

T1 sequence (P42336 whole entry): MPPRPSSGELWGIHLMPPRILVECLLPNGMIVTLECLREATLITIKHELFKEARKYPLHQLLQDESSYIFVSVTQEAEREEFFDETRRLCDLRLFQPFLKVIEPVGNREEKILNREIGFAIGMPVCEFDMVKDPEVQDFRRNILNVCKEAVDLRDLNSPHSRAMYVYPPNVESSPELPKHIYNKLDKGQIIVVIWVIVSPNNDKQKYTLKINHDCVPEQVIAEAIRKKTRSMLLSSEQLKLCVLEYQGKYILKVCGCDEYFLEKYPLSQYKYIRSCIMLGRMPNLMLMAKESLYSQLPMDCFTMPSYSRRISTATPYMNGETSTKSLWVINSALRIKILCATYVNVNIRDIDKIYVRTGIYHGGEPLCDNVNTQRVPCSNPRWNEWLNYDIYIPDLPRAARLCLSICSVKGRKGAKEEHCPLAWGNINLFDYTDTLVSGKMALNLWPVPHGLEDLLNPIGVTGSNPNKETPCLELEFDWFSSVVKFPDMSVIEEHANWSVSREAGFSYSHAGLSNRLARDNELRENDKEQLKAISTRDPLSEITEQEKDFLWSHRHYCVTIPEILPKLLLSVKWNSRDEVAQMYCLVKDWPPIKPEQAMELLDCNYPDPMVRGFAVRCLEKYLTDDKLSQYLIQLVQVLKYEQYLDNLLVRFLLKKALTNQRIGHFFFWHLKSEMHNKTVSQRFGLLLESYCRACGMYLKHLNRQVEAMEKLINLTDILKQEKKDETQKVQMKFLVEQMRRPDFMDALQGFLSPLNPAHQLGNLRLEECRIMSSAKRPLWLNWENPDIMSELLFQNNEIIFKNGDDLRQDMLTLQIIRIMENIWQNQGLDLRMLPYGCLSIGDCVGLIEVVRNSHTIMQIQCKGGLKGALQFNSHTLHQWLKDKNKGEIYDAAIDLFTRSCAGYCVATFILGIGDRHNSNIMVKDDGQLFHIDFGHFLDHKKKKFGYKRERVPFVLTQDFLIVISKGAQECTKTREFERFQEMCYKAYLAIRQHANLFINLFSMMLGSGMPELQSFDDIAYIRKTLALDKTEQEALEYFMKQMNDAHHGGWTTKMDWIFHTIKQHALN
T1 sequence (P27986 whole entry partner): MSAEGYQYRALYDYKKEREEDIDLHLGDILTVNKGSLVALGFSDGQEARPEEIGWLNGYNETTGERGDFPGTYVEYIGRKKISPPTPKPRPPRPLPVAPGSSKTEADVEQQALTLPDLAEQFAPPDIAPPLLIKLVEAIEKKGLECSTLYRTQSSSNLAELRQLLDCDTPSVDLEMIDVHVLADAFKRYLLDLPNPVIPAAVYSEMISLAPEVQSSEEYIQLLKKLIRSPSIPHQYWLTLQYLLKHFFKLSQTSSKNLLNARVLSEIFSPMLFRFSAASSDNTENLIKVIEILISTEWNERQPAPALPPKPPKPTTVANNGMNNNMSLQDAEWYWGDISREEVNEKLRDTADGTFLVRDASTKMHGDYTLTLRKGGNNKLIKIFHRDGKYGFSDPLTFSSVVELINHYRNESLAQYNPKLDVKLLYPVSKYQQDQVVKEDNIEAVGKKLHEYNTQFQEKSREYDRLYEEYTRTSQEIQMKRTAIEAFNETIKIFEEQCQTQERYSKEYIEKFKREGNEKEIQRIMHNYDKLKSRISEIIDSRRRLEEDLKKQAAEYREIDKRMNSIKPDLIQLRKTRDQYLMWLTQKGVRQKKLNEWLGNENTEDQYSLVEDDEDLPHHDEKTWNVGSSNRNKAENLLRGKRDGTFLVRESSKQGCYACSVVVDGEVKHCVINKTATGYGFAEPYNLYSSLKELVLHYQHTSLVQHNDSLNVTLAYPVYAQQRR

Structure (SMILES): Nc1cc(C(F)(F)F)c(-c2nc(N3CCOCC3)c3c(n2)N2CCOC[C@H]2C3)cn1 [Compound 6, (R)-5-(4-morpholino-5a,6,8,9-tetrahydro-5H-pyrimido[5′,4′:4,5]pyrrolo[2,1-c][1,4]oxazin-2-yl)-4-(trifluoromethyl)pyridin-2-amine]
- IC50 (PI3K alpha (p110α)): 390 nM
- IC50 (pS6 S235/236): 696 nM
- IC50 (pPKB S473): 425 nM

Structure (SMILES): Nc1ncc(-c2nc(N3CCOCC3)c3c(n2)N2CCOC[C@H]2C3)cn1 [Compound 9, (R)-5-(4-morpholino-5a,6,8,9-tetrahydro-5H-pyrimido[5′,4′:4,5]pyrrolo[2,1-c][1,4]oxazin-2-yl)pyrimidin-2-amine]
- IC50 (PI3K alpha (p110α)): 411 nM
- IC50 (pS6 S235/236): 65 nM
- IC50 (pPKB S473): 145 nM

Structure (SMILES): Nc1cc(C(F)(F)F)c(-c2nc(N3CCOCC3)c3c(n2)N2CCOC[C@@H]2C3)cn1 [Compound 22, (S)-5-(4-morpholino-5a,6,8,9-tetrahydro-5H-pyrimido[5′,4′:4,5]pyrrolo[2,1-c][1,4]oxazin-2-yl)-4-(trifluoromethyl)pyridin-2-amine]
- IC50 (PI3K alpha (p110α)): 98.1 nM
- IC50 (pS6 S235/236): 1090 nM
- IC50 (pPKB S473): 428 nM

Structure (SMILES): Nc1ncc(-c2nc(N3CCOCC3)c3c(n2)N2CCOC[C@@H]2C3)cn1 [Compound 25, (S)-5-(4-morpholino-5a,6,8,9-tetrahydro-5H-pyrimido[5′,4′:4,5]pyrrolo[2,1-c][1,4]oxazin-2-yl)pyrimidin-2-amine]
- IC50 (PI3K alpha (p110α)): 76 nM
- IC50 (pS6 S235/236): 98 nM
- IC50 (pPKB S473): 154 nM

Structure (SMILES): Nc1cc(C(F)(F)F)c(-c2nc(N3CCOCC3)nc3c2C[C@@H]2COCCN32)cn1 [Compound 38, (R)-5-(2-morpholino-5a,6,8,9-tetrahydro-5H-pyrimido[5′,4′:4,5]pyrrolo[2,1-c][1,4]oxazin-4-yl)-4-(trifluoromethyl)pyridin-2-amine]
- IC50 (PI3K alpha (p110α)): 2620 nM
- IC50 (pS6 S235/236): 9080 nM
- IC50 (pPKB S473): 5910 nM

Structure (SMILES): Nc1ncc(-c2nc(N3CCOCC3)nc3c2C[C@@H]2COCCN32)cn1 [Compound 41, (R)-5-(2-morpholino-5a,6,8,9-tetrahydro-5H-pyrimido[5′,4′:4,5]pyrrolo[2,1-c][1,4]oxazin-4-yl)pyrimidin-2-amine]
- IC50 (PI3K alpha (p110α)): 231 nM
- IC50 (pS6 S235/236): 574 nM
- IC50 (pPKB S473): 575 nM

Structure (SMILES): Nc1cc(C(F)(F)F)c(-c2nc(N3CCOCC3)nc3c2C[C@H]2COCCN32)cn1 [Compound 54, (S)-5-(2-morpholino-5a,6,8,9-tetrahydro-5H-pyrimido[5′,4′:4,5]pyrrolo[2,1-c][1,4]oxazin-4-yl)-4-(trifluoromethyl)pyridin-2-amine]
- IC50 (PI3K alpha (p110α)): 383 nM
- IC50 (pS6 S235/236): 2110 nM
- IC50 (pPKB S473): 833 nM

Structure (SMILES): Nc1ncc(-c2nc(N3CCOCC3)nc3c2C[C@H]2COCCN32)cn1 [Compound 57, (S)-5-(2-morpholino-5a,6,8,9-tetrahydro-5H-pyrimido[5′,4′:4,5]pyrrolo[2,1-c][1,4]oxazin-4-yl)pyrimidin-2-amine]
- IC50 (PI3K alpha (p110α)): 1640 nM
- IC50 (pS6 S235/236): 594 nM
- IC50 (pPKB S473): 1260 nM
